Experimental data: article PMC8645336, “Benchmarking a highly selective USP30 inhibitor for enhancement of mitophagy and pexophagy” (Life Science Alliance, 2021)

Assays:
Test in all cases: biochemical
Parameters in all cases: Ubiquigent DUB profiler selectivity panel, remaining enzyme activity as % of control
Conditions in all cases: read-out: % of control remaining
[1] = biological target: T1, OTUD1 (Homo sapiens, UniProt Q5VV17)
T1 sequence (Q5VV17 1-481): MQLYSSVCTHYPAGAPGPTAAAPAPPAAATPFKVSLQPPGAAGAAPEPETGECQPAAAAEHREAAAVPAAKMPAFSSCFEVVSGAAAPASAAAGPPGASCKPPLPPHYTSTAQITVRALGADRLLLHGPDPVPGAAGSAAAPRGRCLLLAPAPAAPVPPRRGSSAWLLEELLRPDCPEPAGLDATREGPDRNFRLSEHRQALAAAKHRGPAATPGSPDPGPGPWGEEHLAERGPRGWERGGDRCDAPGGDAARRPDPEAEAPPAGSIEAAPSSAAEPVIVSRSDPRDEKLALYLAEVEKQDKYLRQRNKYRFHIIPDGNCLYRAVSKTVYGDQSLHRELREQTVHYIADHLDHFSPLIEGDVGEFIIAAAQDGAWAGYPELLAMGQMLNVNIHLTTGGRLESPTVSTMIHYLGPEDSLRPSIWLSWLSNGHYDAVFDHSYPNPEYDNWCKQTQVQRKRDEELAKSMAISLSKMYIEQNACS
Protocol: (§1) Previous work has reported IC50 values for a series of benzosulphonamide inhibitors, of which all those <1 μM were screened for selectivity, in comparison to three other USP family members ([20], [21]). We have selected one of these compounds (CMPD-39, Fig 1A) for a more rigorous test of selectivity provided by the Ubiquigent DUB profiler screening platform comprising >40 DUBs. […] To test engagement of the inhibitor with USP30 applied to intact cells, we assayed competition with Ub-PA (Ub-propargylamide). Ub-PA covalently binds to the USP30 active site leading to a characteristic upshift on a SDS–PAGE gel ([22]). If a drug blocks access to the catalytic site, then the probe modification is blocked and the apparent molecular weight of USP30 shifts down accordingly. […] A robust proxy read-out for target engagement is the enhancement of TOMM20 ubiquitylation after mitochondrial depolarization ([6], [16]). This second assay indicates a maximal effect with 200 nM CMPD-39 applied to RPE1-YFP-PRKN cells (Fig 1D).  Figure 1. CMPD-39 is a selective USP30 inhibitor. (A) Chemical structure of CMPD-39. (B) DUB specificity screen (DUB profiler, Ubiquigent) with 1-100 μM CMPD-39. […] Samples were incubated with CMPD-39 for 2 h at the indicated concentrations, then incubated with HA-Ub-PA probe for 10 min at 37°C and immunoblotted as shown. Red arrow indicates unbound USP30; blue arrow represents probe bound USP30. (D) Inhibition of USP30 enhances the ubiquitylation of TOMM20 in YFP-PRKN over-expressing hTERT-RPE1 cells in a concentration dependent manner in response to mitophagy induction. Cells were treated for 1 h with DMSO or antimycin A and oligomycin A (AO; 1 μM each) in the absence or presence of CMPD-39 at the indicated concentrations, lysed, and analyzed by Western blotting. Black arrow indicates unmodified TOMM20, ubiquitylated species are indicated by red (mono-ubiquitylated) or blue arrow heads. […] Source data are available for this figure.

[2] = biological target: USP11 (Homo sapiens, UniProt P51784)
Protocol: as §1

[3] = biological target: T2, USP28 (Homo sapiens, UniProt Q96RU2)
T2 sequence (Q96RU2 1-1077): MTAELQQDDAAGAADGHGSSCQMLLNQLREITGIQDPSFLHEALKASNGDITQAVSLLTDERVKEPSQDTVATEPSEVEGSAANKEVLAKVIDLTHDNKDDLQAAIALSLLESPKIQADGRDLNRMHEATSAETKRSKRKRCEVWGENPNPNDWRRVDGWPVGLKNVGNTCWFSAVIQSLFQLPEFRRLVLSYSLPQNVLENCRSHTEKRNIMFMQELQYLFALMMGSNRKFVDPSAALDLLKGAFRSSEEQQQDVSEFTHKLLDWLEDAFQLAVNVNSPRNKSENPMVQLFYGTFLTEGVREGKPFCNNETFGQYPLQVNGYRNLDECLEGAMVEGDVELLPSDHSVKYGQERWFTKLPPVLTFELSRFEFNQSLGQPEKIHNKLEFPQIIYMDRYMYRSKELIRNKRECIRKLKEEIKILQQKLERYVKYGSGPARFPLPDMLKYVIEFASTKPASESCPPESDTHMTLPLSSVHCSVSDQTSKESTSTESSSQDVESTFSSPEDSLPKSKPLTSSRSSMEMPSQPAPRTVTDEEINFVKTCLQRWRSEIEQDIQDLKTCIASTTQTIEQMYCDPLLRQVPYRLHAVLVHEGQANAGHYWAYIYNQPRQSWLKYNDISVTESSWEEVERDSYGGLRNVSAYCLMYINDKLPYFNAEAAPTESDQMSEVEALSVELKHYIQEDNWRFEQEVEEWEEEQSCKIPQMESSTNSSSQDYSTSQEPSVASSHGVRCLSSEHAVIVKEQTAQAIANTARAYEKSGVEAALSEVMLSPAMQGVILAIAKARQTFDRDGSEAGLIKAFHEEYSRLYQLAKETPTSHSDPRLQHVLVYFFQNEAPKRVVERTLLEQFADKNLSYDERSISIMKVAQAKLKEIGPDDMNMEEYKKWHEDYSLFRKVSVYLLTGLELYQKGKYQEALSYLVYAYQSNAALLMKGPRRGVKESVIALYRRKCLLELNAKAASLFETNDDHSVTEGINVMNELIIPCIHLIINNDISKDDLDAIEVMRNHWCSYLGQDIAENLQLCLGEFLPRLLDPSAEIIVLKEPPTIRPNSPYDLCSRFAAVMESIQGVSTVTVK
Protocol: as §1

USP11, sequence (P51784 whole entry): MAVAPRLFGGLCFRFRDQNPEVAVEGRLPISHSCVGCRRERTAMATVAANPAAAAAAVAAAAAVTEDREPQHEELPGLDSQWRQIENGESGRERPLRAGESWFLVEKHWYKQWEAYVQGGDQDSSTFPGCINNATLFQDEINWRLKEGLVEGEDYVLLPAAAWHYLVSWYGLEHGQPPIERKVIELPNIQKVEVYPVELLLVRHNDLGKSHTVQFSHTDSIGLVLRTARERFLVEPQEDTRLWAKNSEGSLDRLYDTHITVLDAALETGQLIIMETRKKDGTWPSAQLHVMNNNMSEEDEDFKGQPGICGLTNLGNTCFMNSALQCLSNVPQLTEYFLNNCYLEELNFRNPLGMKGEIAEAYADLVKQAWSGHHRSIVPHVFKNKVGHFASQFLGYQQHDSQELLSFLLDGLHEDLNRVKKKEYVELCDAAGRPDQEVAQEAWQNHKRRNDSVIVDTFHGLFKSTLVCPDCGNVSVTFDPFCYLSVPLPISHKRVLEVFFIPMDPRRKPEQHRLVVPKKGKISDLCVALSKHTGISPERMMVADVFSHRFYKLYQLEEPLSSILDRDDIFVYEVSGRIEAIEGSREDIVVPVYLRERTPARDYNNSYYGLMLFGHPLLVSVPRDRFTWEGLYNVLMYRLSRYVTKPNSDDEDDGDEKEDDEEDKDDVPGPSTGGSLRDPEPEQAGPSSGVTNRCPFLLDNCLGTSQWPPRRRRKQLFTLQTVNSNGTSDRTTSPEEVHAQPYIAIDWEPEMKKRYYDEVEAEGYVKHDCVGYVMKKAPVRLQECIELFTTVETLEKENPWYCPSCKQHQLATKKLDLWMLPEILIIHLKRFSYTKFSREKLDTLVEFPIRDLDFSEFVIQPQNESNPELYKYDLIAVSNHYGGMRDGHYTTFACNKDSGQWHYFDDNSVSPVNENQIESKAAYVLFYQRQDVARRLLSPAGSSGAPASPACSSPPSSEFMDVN

remaining activity at 1 µM [1]: 99.9%
remaining activity at 10 µM [1]: 93.4%
remaining activity at 100 µM [1]: 98%
remaining activity at 1 µM [2]: 103%
remaining activity at 10 µM [2]: 98.4%
remaining activity at 100 µM [2]: 97.2%
remaining activity at 1 µM [3]: 96.5%
remaining activity at 10 µM [3]: 94.2%
remaining activity at 100 µM [3]: 102%
Compound: CC(C)(C)NS(=O)(=O)c1ccc(NC(=O)[C@H](Cc2ccccc2)NC(=O)c2ccc(F)cc2)cc1 [compound 39, CMPD-39]
